Results as given in US7700765B2, “DNA minor groove binding compounds” (University of Strathclyde, priority 2001, dated 2010).
Values after ≈ are worked out from the molar mass of the structure shown.

Legend:
[1] = test system: S. faecalis; experiment: Minimum inhibitory concentration (MIC) against microorganisms; assay type: cell-based; settings: Enterococcus faecalis; Organism: S. faecalis
From the text: (§1) Minimum inhibitory concentrations (MICs) against microorganisms (e.g. S. Aureus, E. coli, S. faecalis, P. vulgaris, MRSA, Aspergillus niger, Candida albicans, Klebs. aerogenes, Ent. cloacae, Mycobacterium fortuitum or Aspergillus nidulans) for compounds of the invention may be measured using procedures such as those described in A. J. Drummond and R. D. Waigh “The development of microbiological methods for phytochemical screening” Recent Res. Devel. Phytochem. 4, 143-152 (2000).

[2] = test system: Ent. cloacae; experiment: as above; assay type: cell-based; settings: Enterobacter cloacae; Organism: Ent. cloacae
From the text: as §1

[3] = test system: Klebs. aerogenes; experiment: as above; assay type: cell-based; settings: Klebsiella aerogenes; Organism: Klebs. aerogenes
From the text: as §1

[4] = test system: S. aureus; experiment: as above; assay type: cell-based; settings: Staphylococcus aureus; Organism: S. aureus
From the text: as §1

[5] = test system: MRSA; experiment: as above; assay type: cell-based; settings: Staphylococcus aureus; Organism: MRSA
From the text: as §1

[6] = test system: P. vulgaris; experiment: as above; assay type: cell-based; settings: Proteus vulgaris; Organism: P. vulgaris
From the text: as §1

[7] = test system: E. coli; experiment: as above; assay type: cell-based; settings: Escherichia coli; Organism: E. coli
From the text: as §1

[8] = test system: NFκB protein-DNA complexes; experiment: NFκB DNA-binding assay (gel shift) with macrophage nuclear extracts; assay type: biochemical, Murine; settings: 1 μL of a 1 mM solution, final volume 10 μL; nuclear protein from macrophages exposed to LPS
Procedure: Murine macrophages (obtained and cultured as described in Cell. Signal. 11(7), 491 (1999), hereinafter referred to as “Reference 1”, the disclosures of which document are hereby incorporated by reference) were exposed to vehicle (see Reference 1) or 1 μg/mL lipopolysaccharide (LPS; the active component of gram-negative endotoxin and a strong activator of the Nuclear Factor kappa B (NFκB) pathway; the particular LPS being obtained from Salmonella minnesota) for 1 hour and nuclear extracts prepared by standard procedures (see Brit. J. Pharmacol. 134, 393 (2001), hereinafter referred to as “Reference 2”, the disclosures of which document are hereby incorporated by reference).
Aliquots of compounds (1 μL of a 1 mM solution) were incubated with 1 μL (0.035 pmol) of a ^32P-labelled 20 bp double-stranded DNA oligonucleotide (representing the consensus binding sequence for NFκB proteins (see Reference 2 and Brit. J. Pharmacol. 134, 1629-1638 (2001), the disclosures of which latter document are hereby incorporated by reference)) for 30 min at room temperature. […] The formation of NFκB protein-DNA complexes and potential inhibition of complex formation in the presence of the above compounds was detected by autoradiography. […]

[9] = test system: Aspergillus niger; experiment: Minimum inhibitory concentration (MIC) against microorganisms; assay type: cell-based; settings: Organism: Aspergillus niger
From the text: as §1

[10] = test system: Candida albicans; experiment: as above; assay type: cell-based; settings: Organism: Candida albicans
From the text: as §1

[11] = test system: Aspergillus nidulans; experiment: as above; assay type: cell-based; settings: Organism: Aspergillus nidulans
From the text: as §1

[12] = test system: Mycobacterium fortuitum; experiment: as above; assay type: cell-based; settings: Mycolicibacterium fortuitum; Organism: Mycobacterium fortuitum
From the text: as §1

[13] = test system: double-stranded DNA decamer CGACTAGTCG (SEQ ID NO:3); experiment: Capillary electrophoresis ligand-DNA binding study; settings: drug to DNA ratio up to 4:1
From the text: (§2) Typically, ligand binding results in a change in migration time of the DNA and sometimes a change in peak shape.
(§3) The following are shown in FIGS. 1-6: • (a) the experimental conditions, including the DNA sequence(s); • (b) the result of sequential addition of ligand; and • (c) the structure of the ligand being investigated. Key to FIGS. 1 to 6: • r0=electropherogram in the absence of drug • rX=(where X is 0.5, 1, 2, 3 or 4) electropherogram in the presence of drug, where the drug:DNA ratio (in terms of concentration) is X:1
This ratio corresponds to the binding ratio.

[14] = biological target: DNA; settings: binding to DNA; read-out: dissociation constants; cited from earlier work
[15] = test system: double-stranded DNA oligonucleotide AAATTATATTAT (SEQ ID NO:1); experiment: Capillary electrophoresis ligand-DNA binding study; settings: AAATTATATTAT versus GGGCCGCGCCGC
From the text: Capillary electrophoresis was used to study of ligand-DNA binding (see: (i) Hamdan, I. I.; Skellern, G. G.; and Waigh, R. D. “Separation of pd(GC)12 from pd(AT)12 by free solution capillary electrophoresis”, J. Cromatogr. A. 806, 165-168 (1998); (ii) Hamdan, I. I.; Skellern, G. G.; and Waigh, R. D. “Use of capillary electrophoresis in the study of ligand-DNA interactions”, Nucleic Acids Research 26, 3053-3058 (1998); (iii) Hamdan, I. I.; Skellern, G. G.; and Waigh, R. D. “Ligand binding to oligonucleotides” Methods in Molecular Biology, Vol. 163, “Capillary Electrophoresis of Nucleic acids”, Vol 2, pages 379-391, K. R. Mitchelson and J. Cheng Eds., Humana Press, New Jersey, (2000)).
as §2, §3
This ratio corresponds to the binding ratio. […]

SMILES	MIC [1]	MIC [2]	MIC [3]	MIC [4]	MIC [5]	MIC [6]	MIC [7]	effect on LPS-stimulated NFκB-DNA binding activity [8]	MIC [9]	MIC [10]	MIC [11]	MIC [12]	affinity for the sequence [13]	Kd [14]	AT selectivity [15]
CC1(C)S[C@@H]2[C@H](NC(=O)[C@H](N)c3ccc(O)cc3)C(=O)N2[C@H]1C(=O)O [Amoxicillin, reference compound]	0.49 µM (≈ 0.179 µg/mL)	4 µM (≈ 1.46 µg/mL)	32.3 µM (≈ 11.8 µg/mL)	0.49 µM (≈ 0.179 µg/mL)	16.1 µM (≈ 5.88 µg/mL)	8.1 µM (≈ 2.96 µg/mL)	2 µM (≈ 0.731 µg/mL)	–	–	–	–	–	–	–	–
CC(C)n1cc(NC(=O)c2cc(NC=O)cn2C)cc1C(=O)Nc1cc(C(=O)NCCCN(C)C)n(C)c1 [Example 2, N-[5-({[5-({[3-(Dimethylamino)propyl]amino}carbonyl)-1-methyl-1H-pyrrol-3-yl]amino}carbonyl)-1-isopropyl-1H-pyrrol-3-yl]-4-(formylamino)-1-methyl-1H-pyrrole-2-carboxamide]	–	–	–	–	–	–	–	little effect	–	–	–	–	–	–	–
CC(C)c1sc(NC(=O)c2cc(NC(=O)c3cc(NC=O)cn3C)cn2C)nc1C(=O)NCCCN(C)C [Example 3, N-[3-(Dimethylamino)propyl]-2-({[4-({[4-(formylamino)-1-methyl-1H-pyrrol-2-yl]carbonyl}amino)-1-methyl-1H-pyrrol-2-yl]carbonyl}amino)-5-isopropyl-1,3-thiazole-4-carboxamide]	9.5 µM (≈ 5.16 µg/mL)	76.2 µM (≈ 41.4 µg/mL)	76.2 µM (≈ 41.4 µg/mL)	4.7 µM (≈ 2.55 µg/mL)	38.1 µM (≈ 20.7 µg/mL)	152 µM (≈ 82.6 µg/mL)	> 152 µM	–	76.1 µM (≈ 41.3 µg/mL)	76.1 µM (≈ 41.3 µg/mL)	38.1 µM (≈ 20.7 µg/mL)	19 µM (≈ 10.3 µg/mL)	–	–	–
CC(C)c1sc(NC(=O)c2cc(NC=O)cn2C)nc1C(=O)Nc1cc(C(=O)NCCCN(C)C)n(C)c1 [Example 7, N-[5-({[3-(Dimethylamino)propyl]amino}carbonyl)-1-methyl-1H-pyrrol-3-yl]-2-({[4-(formylamino)-1-methyl-1H-pyrrol-2-yl]carbonyl}amino)-5-isopropyl-1,3-thiazole-4-carboxamide]	9.5 µM (≈ 5.16 µg/mL)	9.5 µM (≈ 5.16 µg/mL)	38.1 µM (≈ 20.7 µg/mL)	4.8 µM (≈ 2.6 µg/mL)	19.1 µM (≈ 10.4 µg/mL)	152 µM (≈ 82.7 µg/mL)	> 152 µM	–	38.1 µM (≈ 20.7 µg/mL)	38.1 µM (≈ 20.7 µg/mL)	9.5 µM (≈ 5.16 µg/mL)	19 µM (≈ 10.3 µg/mL)	–	–	–
CC(C)CCn1cc(NC(=O)c2ccc3[nH]c(C(=O)Nc4cc(C(=O)Nc5cc(C(=O)NCCCN6CCOCC6)n(C)c5)n(CCC(C)C)c4)cc3c2)cc1C(=O)Nc1cc(C(=O)NCCCN2CCOCC2)n(C)c1 [Example 17, N^2,N^5-Bis[1-isopentyl-5-({[1-methyl-5-({[3-(4-morpholinyl)propyl]amino}-carbonyl)-1H-pyrrol-3-yl]amino}carbonyl)-1H-pyrrol-3-yl]-1H-indole-2,5-dicarboxamide]	77.7 µM (≈ 82.2 µg/mL)	> 77.7 µM	38.9 µM (≈ 41.2 µg/mL)	19.4 µM (≈ 20.5 µg/mL)	> 77.7 µM	77.7 µM (≈ 82.2 µg/mL)	> 77.7 µM	–	> 77.7 µM	> 77.7 µM	77.7 µM (≈ 82.2 µg/mL)	> 77.7 µM	–	–	–
CC(C)c1sc(NC(=O)c2cc(NC(=O)c3ccc4c(c3)CCc3cc(C(=O)Nc5cc(C(=O)Nc6nc(C(=O)NCCCN(C)C)c(C(C)C)s6)n(C)c5)ccc3-4)cn2C)nc1C(=O)NCCCN(C)C [Example 28, N^2,N^7-Bis[5-({[4-({[3-(dimethylamino)propyl]amino}carbonyl)-5-isopropyl-1,3-thiazol-2-yl]amino}carbonyl)-1-methyl-1H-pyrrol-3-yl]-9,10-dihydro-2,7-phenanthrenedicarboxamide]	10 µM (≈ 10.2 µg/mL)	> 80.3 µM	> 80.3 µM	80 µM (≈ 81.4 µg/mL)	10 µM (≈ 10.2 µg/mL)	> 80.3 µM	> 80.3 µM	–	> 80.3 µM	> 80.3 µM	20.1 µM (≈ 20.4 µg/mL)	40.1 µM (≈ 40.8 µg/mL)	–	–	–
OC(Cn1cncn1)(Cn1cncn1)c1ccc(F)cc1F [Fluconazole, reference compound]	–	–	–	–	–	–	–	–	> 327 µM	81.6 µM (≈ 25 µg/mL)	40.8 µM (≈ 12.5 µg/mL)	–	–	–	–
[H]/N=C(/N)N[C@H]1[C@H](O)[C@@H](O)[C@H](O[C@@H]2O[C@@H](C)[C@](O)(C=O)[C@H]2O[C@@H]2O[C@@H](CO)[C@H](O)[C@@H](O)[C@@H]2NC)[C@@H](N/C(N)=N\[H])[C@@H]1O [Streptomycin, reference compound]	–	–	–	–	–	–	–	–	–	–	–	21.5 µM (≈ 12.5 µg/mL)	–	–	–
Cn1cc(NC(=O)c2cc(NC(=O)c3cc(NC=O)cn3C)cn2C)cc1C(=O)NCCC(=N)N [distamycin, reference compound]	–	–	–	–	–	–	–	–	–	–	–	–	no affinity	~10 µM	–
Cn1cc(NC(=O)c2cc(NC(=O)CN=C(N)N)cn2C)cc1C(=O)NCCC(=N)N [netropsin]	–	–	–	–	–	–	–	–	–	–	–	–	–	~10 µM	AT selective
